Assay results as given in US6531160B2, “Microcapsules with an aqueous core containing at least one water-soluble cosmetic or dermatological active principle and cosmetic or dermatological compositions containing them” (L′Oreal, priority 2000, dated 2003).

Test: Loss of active agent after storage for 2 months at 45° C. (microcapsule suspension vs control aqueous solution)
Format: physicochemical
Conditions: control aqueous solution of the active agent, same weight concentration
Protocol: (§1) The microcapsule suspension thus obtained is stored for 2 months at a temperature of 45° C. After this storage period, the loss of cytochrome C from the suspension and that of a control aqueous solution of cytochrome C having the same weight concentration of 0.25% and which has been stored under the same conditions, are measured.
as §1, with “chlorophylline” for “cytochrome C”, “0.1%,” for “0.25%”
as §1, with “ascorbic acid” for “cytochrome C”, “5% and also a pH of 6,” for “0.25%”

| Loss of active agent after storage for 2 months at 45° C., non-encapsulated control [%] | Compound |
| --- | --- |
| 60 | chlorophylline |
| 40 | O=C1O[C@H]([C@@H](O)CO)C(O)=C1O [ascorbic acid] |

| Compound | Loss of active agent after storage for 2 months at 45° C., non-encapsulated control [%] |
| --- | --- |
| cytochrome C | 60 |
